Laboratory results reported in article PMC6089211, “Expression and purification of human diacylglycerol kinase α from baculovirus-infected insect cells for structural studies” (PeerJ, 2018).

Biological target: T1, diacylglycerol kinase α (DGKα) (Homo sapiens, UniProt P23743)
T1 construct: gene DGKA; full-length DGKα (aa 1–735), N-terminal His×6 tag, Sf9-expressed
Assay: Michaelis–Menten kinetics, mixed micelle ADP-Glo assay (Km)
Assay type: biochemical

T1 sequence (P23743 whole entry, the tested form may be a part): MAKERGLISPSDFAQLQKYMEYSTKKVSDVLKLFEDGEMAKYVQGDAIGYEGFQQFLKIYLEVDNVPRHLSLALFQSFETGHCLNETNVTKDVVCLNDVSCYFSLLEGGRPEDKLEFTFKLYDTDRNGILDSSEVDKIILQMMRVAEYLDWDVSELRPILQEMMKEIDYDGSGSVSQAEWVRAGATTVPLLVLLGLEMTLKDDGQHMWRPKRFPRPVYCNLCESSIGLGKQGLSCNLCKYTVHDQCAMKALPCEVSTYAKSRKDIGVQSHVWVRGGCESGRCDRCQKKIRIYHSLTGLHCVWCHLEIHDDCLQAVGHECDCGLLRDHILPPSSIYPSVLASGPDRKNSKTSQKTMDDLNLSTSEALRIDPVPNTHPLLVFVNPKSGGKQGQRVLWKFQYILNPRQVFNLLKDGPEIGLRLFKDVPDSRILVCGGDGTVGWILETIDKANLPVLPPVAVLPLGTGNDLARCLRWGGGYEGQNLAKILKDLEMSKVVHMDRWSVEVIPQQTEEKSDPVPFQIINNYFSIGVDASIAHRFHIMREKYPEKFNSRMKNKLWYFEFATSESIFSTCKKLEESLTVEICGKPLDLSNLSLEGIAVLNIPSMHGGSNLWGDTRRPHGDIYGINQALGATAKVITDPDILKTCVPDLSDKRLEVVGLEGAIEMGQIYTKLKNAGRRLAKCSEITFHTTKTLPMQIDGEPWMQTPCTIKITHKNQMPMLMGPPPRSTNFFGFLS

CCCCCCCC/C=C\CCCCCCCC(=O)OC[C@H](CO)OC(=O)CCCCCCC/C=C\CCCCCCCC [1,2-dioleolyl-sn-glycerol]
Km: 1.06 ± 0.21 mol%
